Patent US12534469B2 (CHILDREN'S HOSPITAL MEDICAL CENTER, priority 2020, dated 2026)
Positions count from the first letter of the chain named. Like-named read-outs stand apart in the source and are kept apart here.

What was measured:
FLT3 ITD, F691L = target: T1, FLT3 ITD, F691L (Homo sapiens, UniProt P36888, F691L/ITD); assay: DiscoverX KINOMEscan competition binding assay, FLT3 ITD, F691L
T1 sequence (P36888 564-993 F691L): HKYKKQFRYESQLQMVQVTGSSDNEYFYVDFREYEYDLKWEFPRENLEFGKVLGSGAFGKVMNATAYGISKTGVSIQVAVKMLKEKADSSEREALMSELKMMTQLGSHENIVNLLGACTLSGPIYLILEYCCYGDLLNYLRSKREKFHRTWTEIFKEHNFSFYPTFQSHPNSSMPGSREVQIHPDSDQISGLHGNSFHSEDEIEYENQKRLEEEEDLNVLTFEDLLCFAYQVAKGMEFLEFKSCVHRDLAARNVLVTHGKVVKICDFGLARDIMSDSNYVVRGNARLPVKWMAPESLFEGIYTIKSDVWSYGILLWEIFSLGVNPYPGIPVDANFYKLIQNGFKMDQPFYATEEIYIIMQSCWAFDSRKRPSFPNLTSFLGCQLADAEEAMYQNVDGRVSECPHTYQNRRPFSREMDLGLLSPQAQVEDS
Excerpt: (§1) Kinase binding data were obtained for various exemplary compounds prepared according to Examples 1-25 using the DiscoverX KINOMEscan® active site-directed competition binding site-directed assay protocol described below. […] As a result, the data report thermodynamic interaction affinities (Kd values), rather than IC50 values that are dependent on ATP concentrations. The assay uses a DNA-tagged version of the protein kinase, and an immobilized ligand bound to a solid support. Compounds that directly or indirectly prevent kinase binding to the immobilized ligand reduce the amount of kinase captured on the solid support, which is detected using an ultra-sensitive qPCR method. Affinity constants reported from the assay have been reported to be independent of the immobilized ligand used that is coupled to the solid support (See supplemental information in Fabian, M. A. et. al., (2005) Nat. Biotechnol. 23, 329-336; Wodicka, L. M. et. al., (2010) Chem. Biol. 17, 1241-1249.)
(§2) Kinase-tagged T7 phage strains were prepared in an E. coli host derived from the BL21 strain. E. coli were grown to log-phase and infected with T7 phage and incubated with shaking at 32° C. until lysis. The lysates were centrifuged and filtered to remove cell debris. The remaining kinases were produced in HEK-293 cells and subsequently tagged with DNA for qPCR detection. […] The liganded beads were blocked with excess biotin and washed with blocking buffer (SeaBlock (Pierce), 1% BSA, 0.05% Tween 20, 1 mM DTT) to remove unbound ligand and to reduce non-specific binding. […] Test compounds were prepared as 111× stocks in 100% DMSO. Kds were determined using an 11-point 3-fold compound dilution series with three DMSO control points. […] The compounds were then diluted directly into the assays such that the final concentration of DMSO was 0.9%. All reactions were performed in polypropylene 384-well plates. Each was a final volume of 0.02 mL. […] The kinase concentration in the eluates was measured by qPCR.
(§3) Binding constants (Kds) were calculated with a standard dose-response curve using the Hill equation. […]

FLT3 K663Q = target: T2, FLT3 K663Q (Homo sapiens, UniProt P36888, K663Q); assay: DiscoverX KINOMEscan competition binding assay, FLT3 K663Q
T2 construct: purchased DiscoverX (KINOMEscan); host or cells: E. coli (T7 phage) or HEK-293
T2 sequence (P36888 27-993 K663Q): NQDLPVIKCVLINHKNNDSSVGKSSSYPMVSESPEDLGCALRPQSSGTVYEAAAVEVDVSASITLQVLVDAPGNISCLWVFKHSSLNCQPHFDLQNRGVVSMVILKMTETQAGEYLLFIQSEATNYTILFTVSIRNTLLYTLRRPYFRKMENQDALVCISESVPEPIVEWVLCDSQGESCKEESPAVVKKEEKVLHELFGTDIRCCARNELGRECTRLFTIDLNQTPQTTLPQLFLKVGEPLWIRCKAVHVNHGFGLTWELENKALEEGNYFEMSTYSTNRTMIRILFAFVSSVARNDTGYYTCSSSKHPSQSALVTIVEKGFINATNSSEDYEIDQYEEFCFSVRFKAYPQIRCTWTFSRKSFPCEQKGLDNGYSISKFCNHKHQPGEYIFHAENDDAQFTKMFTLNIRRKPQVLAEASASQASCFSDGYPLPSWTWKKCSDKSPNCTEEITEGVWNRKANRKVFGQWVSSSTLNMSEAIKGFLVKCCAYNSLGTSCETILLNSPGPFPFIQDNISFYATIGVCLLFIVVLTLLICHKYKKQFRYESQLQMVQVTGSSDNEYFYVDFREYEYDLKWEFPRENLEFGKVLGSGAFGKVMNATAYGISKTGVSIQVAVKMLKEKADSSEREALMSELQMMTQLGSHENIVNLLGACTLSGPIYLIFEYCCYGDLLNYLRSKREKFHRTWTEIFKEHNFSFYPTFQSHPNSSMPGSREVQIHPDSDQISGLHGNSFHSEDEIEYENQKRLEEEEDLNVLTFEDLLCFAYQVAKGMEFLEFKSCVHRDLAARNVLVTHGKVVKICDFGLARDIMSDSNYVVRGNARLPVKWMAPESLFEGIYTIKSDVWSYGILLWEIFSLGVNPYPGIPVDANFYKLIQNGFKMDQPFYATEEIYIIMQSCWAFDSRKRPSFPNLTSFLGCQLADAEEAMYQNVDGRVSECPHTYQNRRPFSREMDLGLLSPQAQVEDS
Excerpt: as §1, §2, §3

FLT3 ITD, D835V = target: T3, FLT3 ITD, D835V (Homo sapiens, UniProt P36888, D835V/ITD); assay: DiscoverX KINOMEscan competition binding assay, FLT3 ITD, D835V
T3 sequence (P36888 564-993 D835V): T1 sequence (P36888 564-993 F691L) with L128F, D272V
Excerpt: as §1, §2, §3

| SMILES | Kd (FLT3 ITD, F691L; read-out: FLT3 ITD, F691L Kd) | Kd (FLT3 K663Q) | Kd (FLT3 ITD, D835V; read-out: FLT3 ITD, D835V Kd) | Kd (FLT3 ITD, F691L) | Kd (FLT3 ITD, D835V) |
| --- | --- | --- | --- | --- | --- |
| COc1cc2ncc(-c3cccc(N[C@H]4CNCC[C@@H]4F)n3)n2nc1C1CC1 [Compound 102, 6-(6-cyclopropyl-7-methoxyimidazo[1,2-b]pyridazin-3-yl)-N-((3S,4S)-4-fluoropiperidin-3-yl)pyridin-2-amine] | 140 pM | 370 pM | 45 pM |  |  |
| COc1cc2ncc(-c3cccc(N[C@H]4CNC[C@@H]4F)n3)n2nc1C1CC1 [Compound 96, 6-(6-cyclopropyl-7-methoxyimidazo[1,2-b]pyridazin-3-yl)-N-((3S,4S)-4-fluoropyrrolidin-3-yl)pyridin-2-amine] |  | 600 pM |  | 370 pM | 70 pM |
| COc1cc2ncc(-c3cccc(N[C@@H]4CCNC4)n3)n2nc1C1CC1 [Compound 97, (R)-6-(6-cyclopropyl-7-methoxyimidazo[1,2-b]pyridazin-3-yl)-N-(pyrrolidin-3-yl)pyridin-2-amine] | 190 pM | 1400 pM | 34 pM |  |  |
